Assay [1] relates to rat annulus fibrosus cells. Nature of the assay: Alteration in gene expression by oxidative stress inducers (RT-PCR). The conditions noted are these: 24 hours. It is filed as cell-based. As to the method:
(§1) Total RNA was prepared using RNeasy Mini kit (manufactured by Qiagen N.V.) or TRIzol Reagent (manufactured by Thermo Fisher Scientific Inc.). cDNA was synthesized using Prime Script RT Reagent Kit (manufactured by Takara Bio Inc.).
(§2) RT-PCR amplification was performed with Thermal Cycler Dice Real-Time System (manufactured by Takara Bio Inc.) using SYBR Premix Ex Taq (manufactured by Takara Bio Inc.). Expression was normalized to β-actin or hypoxanthine phosphoribosyl transferase (HPRT). The results were analyzed by the ddCt method.
(§3) The PCR primers used were as follows: • TNF-α (F) : 5'-[…]-3' (SEQ ID NO: 1) (R) : 5'-[…]-3' (SEQ ID NO: 2) • MMP-3 (F) : 5'-[…]-3' (SEQ ID NO: 3) (R) : 5'-[…]-3' (SEQ ID NO: 4) • COX-2 (F) : 5'-[…]-3' (SEQ ID NO: 5) (R) : 5'-[…]-3' (SEQ ID NO: 6) • AGC1 (F) : 5'-[…]-3' (SEQ ID NO: 7) (R) : 5'-[…]-3' (SEQ ID NO: 8) • β-actin (F) : 5'-[…]-3' (SEQ ID NO: 9) (R) : 5'-[…]-3' (SEQ ID NO: 10) • HPRT (F) : 5'-[…]-3' (SEQ ID NO: 11) (R) : 5'-[…]-3' (SEQ ID NO: 12)
(§4) Rat annulus fibrosus cells were prepared as follows: rat annulus fibrosus tissues were dissected from the lumbar and coccyx intervertebral discs of 8-week-old female Wistar rats, treated with DMEM containing 0.04% pronase E (manufactured by SERVA Electrophoresis GmbH) at 37°C for 1 hour, and subsequently treated with 0.025% collagenase P (manufactured by Roche Diagnostics K.K.) at 37°C for 4 hours for isolation. The isolated cells were washed with Dulbecco's modified Eagle's medium (DMEM, manufactured by Invitrogen Corp.) containing 5% heat-inactivated fetal bovine serum (manufactured by JRH Biosciences Lenexa). The isolated annulus fibrosus cells were cultured in DMEM containing 10% fetal bovine serum and 1% penicillin-streptomycin under conditions of 5% CO2 at 37°C. The cells were used within the first five passages for analysis.
Rat annulus fibrosus cells were cultured in a medium added with hydrogen peroxide (concentration: 10 µM and 100 µM) or BSO (concentration: 0.2 mM and 1 mM) for 24 hours and collected. RNA was extracted, and the mRNA expression of TNF-α, MMP-3, COX-2, and aggrecan was quantitatively measured by RT-PCR. RNA extraction and RT-PCR were performed in the same way as in the model animals described above.

Assay [2] concerns rat annulus fibrosus cells. Briefly: Intracellular level of reactive oxygen species (MitoTracker Orange staining, cell sorter). It is filed as cell-based. As to the method:
as §4

Assay [3] concerns MAPKs (p38, ERK, and JNK). Briefly: MAPK phosphorylation after oxidative stress (Western blotting). The conditions noted are these: for phosphorylation of the MAPKs p38, ERK, and JNK: 10 minutes after treatment. It is filed as cell-based, rat. On the technique in general: A western blot detects proteins with antibodies after separation by electrophoresis.
The subject of assay [4] is intervertebral disc degeneration models. Briefly: Rat caudal intervertebral disc puncture model, therapeutic administration, T2-weighted MRI. It is filed as in vivo, Wistar rats. How it is done:
The involvement of oxidative stress in intervertebral disc degeneration was studied. The caudal intervertebral discs of 8-week-old Wistar rats were punctured using a 23-G needle to prepare intervertebral disc degeneration models. A group that underwent only development without puncture (sham group) was used as a control group. Two months after the puncture, the T2 intramedullary high-intensity area was measured by MRI (GE Sigma Excite HD 1.5T, manufactured by GE Healthcare Corp.) under the following conditions: TR/TE, 3000/86; echo train length, 12; slice thickness, 2 mm; FOV, 10 cm; matrix size 352X224; NEX, 10 times.
The caudal intervertebral discs of 8-week-old female Wistar rats were punctured using a 23-G needle to prepare intervertebral disc degeneration models. The animals were divided into a group given NAC water (1 g/L) from 1 week after the puncture (NAC group) and a group raised with normal water (puncture group). A group that underwent only development without puncture (control group) was used as a control. Whether or not the administration of NAC would suppress intervertebral disc degeneration was studied 2 months after the puncture (see Figure 7A). The average body weight of the rats during the administration of NAC water was 220 g, and the average water intake of 24 hours was 35 g; thus, the rats took 159 mg/kg/day of NAC on average per day. The items to be studied were histological evaluation and a T2 intramedullary high-intensity area by MRI.
(§5) The present inventors prepared rat intervertebral disc degeneration models in the same way as above and conducted QSI analysis. Here, the QSI analysis was conducted using our uniquely developed program, though the analysis can employ software such as dTV II FZR. A puncture group, a NAC group, and a control group each involving 5 rats were subjected to the respective procedures and analyzed. […] The comparison of analysis results among the control group (a and d), the puncture group (b and e), and the NAC group (c and f) is shown.

Assay [5] concerns rat annulus fibrosus cells. Briefly: Effect of antioxidants on oxidative stress induced by TNF-α (gene expression by RT-PCR). The conditions noted are these: 24 hours. It is filed as cell-based. As to the method: Next, NAC or tocopherol was analyzed for whether to reduce oxidative stress induced by TNF-α by its addition. 50 ng/ml of TNF-α was added to cells in the presence of 100 µM NAC or 20 mM α-tocopherol, and the cells were collected 24 hours later, followed by gene expression analysis on MMP-3, COX-2, and aggrecan by RT-PCR (Figures 6C and 6D). NAC and tocopherol were also shown to suppress oxidative stress induced by the addition of TNF-α.

Assay [6] has as its system intervertebral disc degeneration models. Briefly: Rat caudal intervertebral disc puncture model, Q-space imaging (QSI) analysis. It is filed as in vivo. As to the method: as §5
Assay [7] has as its system intervertebral disc degeneration. To be noted: procedures for causing degeneration carried out after 1-week oral administration; Non Patent Literature 5; cited from earlier work.
Another assay deals with MAPK signaling cascade. Briefly: Effect on MAPK signaling cascade activation caused by TNF-α (Western blotting). It is filed as cell-based, rat. The conditions noted are these: 50 ng/ml TNF-α in the presence of 100 µM NAC. How it is done: NAC was also analyzed for whether to suppress phosphorylation in the MAPK signaling cascade generating downstream signals of oxidative stress (Figure 6E). In the same way as above, cells were treated with 50 ng/ml TNF-α in the presence of 100 µM NAC and analyzed by Western blotting.

Assay [8] deals with rat annulus fibrosus cells. Nature of the assay: Effect of antioxidants on gene expression under oxidative stress induced by hydrogen peroxide or BSO (RT-PCR). It is filed as cell-based. The conditions noted are these: 24 hours. How it is done: as §1, §2, §3
100 µM hydrogen peroxide or 1 mM BSO was added to rat annulus fibrosus cells in the presence of 100 µM NAC, and the cells were cultured for 24 hours, followed by the measurement of the mRNA expression of TNF-α, MMP-3, COX-2, and aggrecan (Figures 4A and 4B).
Hydrogen peroxide or BSO was added to rat annulus fibrosus cells in the presence of 20 mM α-tocopherol, and the cells were cultured for 24 hours, followed by the measurement of the mRNA expression of TNF-α, MMP-3, COX-2, and aggrecan (Figures 5A and 5B). Here, ethanol was used as a solvent for α-tocopherol. Cells cultured in a medium added only with ethanol were used as a control.

Another assay has as its system COX-2 mRNA expression. Nature of the assay: Effect of MAPK inhibitors on COX-2 gene expression under oxidative stress (RT-PCR). The conditions noted are these: MAPK inhibitor 10 µM, 30 minutes later 100 µM hydrogen peroxide or 1 mM BSO; RT-PCR 24 hours later. It is filed as cell-based, rat. As to the method: Hydrogen peroxide or BSO was added to rat annulus fibrosus cells in the presence of MAPK inhibitors, and their effects on an increase in COX-2 mRNA expression were analyzed. The MAPK inhibitors used were PD98059 (ERK inhibitor; represented by PD in Figure 3), SP600125 (JNK inhibitor; represented by SP in Figure 3), and SB203580 (p38 inhibitor; represented by SB in Figure 3) (all manufactured by Wako Pure Chemical Industries, Ltd.). These MAPK inhibitors were each added at concentration of 10 µM to a medium, and 30 minutes later, 100 µM hydrogen peroxide or 1 mM BSO was added thereto. The expression of COX-2 was analyzed by RT-PCR 24 hours later.

Where [9] appears, read: puncture group versus NAC group.
The mark [10] stands for this setting: 100 µM NAC, 100 µM hydrogen peroxide or 1 mM BSO.
Setting [11] is: hydrogen peroxide 10 µM and 100 µM.
[12] abbreviates: 20 mM α-tocopherol, hydrogen peroxide or BSO, ethanol control.

We go through 6 molecules from patent EP3360574B1, “MEDICINAL COMPOSITION FOR AMELIORATING AND TREATING INTERVERTEBRAL DISC DEGENERATION AND LOW BACK PAIN, AND METHOD FOR SCREENING THERAPEUTIC AGENT” (Keio University, priority 2015, dated 2017).

Molecules are shown by their SMILES.

For `CCCCS(=N)(=O)CCC(N)C(=O)O` (stereo not drawn) [BSO, buthionine sulfoximine], in assay [1] (BSO 0.2 mM and 1 mM), the “mRNA expression of COX-2” value is recorded as “concentration-dependent increase”, the “mRNA expression of MMP-3” value is “concentration-dependent increase”, the “mRNA expression of TNF-α” value is given as “concentration-dependent increase” and the “mRNA expression of aggrecan” value is listed as “reduced in a concentration-dependent manner”. In addition, the “intracellular level of reactive oxygen species” value in assay [2] (1 mM BSO for 24 hours) is reported as “increase”. In addition, the “phosphorylation of the MAPKs p38, ERK, and JNK” value in [3] (1 mM BSO) was “strongly phosphorylated”.
Consider `CC(=O)N[C@@H](CS)C(=O)O` [NAC, N-acetylcysteine], for which, in [4] (159 mg/kg/day), the “effect of administration in an experiment using rats” value was “effective”. Besides, the “T2-weighted images, difference between the puncture group and the NAC group” value in assay [4] (5 rats per group) was “rarely showed the difference”. For the same molecule, the T2 high-intensity area result in assay [4] (NAC water (1 g/L, 159 mg/kg/day) from 1 week after puncture, MRI 2 months after puncture, NAC group compared with puncture group) is listed as “significantly improved”. The “T2 mapping values obtained from T2-weighted images focused on the nucleus pulposus” value in assay [4] (setting [9]) is given as “did not significantly differ”. Further, the “oxidative stress induced by the addition of TNF-α (gene expression of MMP-3, COX-2, and aggrecan)” value in [5] (50 ng/ml TNF-α in the presence of 100 µM NAC) was “suppress”. Moreover, the “phosphorylation of p38 MAPK” value in assay [3] (100 µM hydrogen peroxide in the presence of 100 µM NAC, 15 minutes) is listed as “significantly suppressed”. The “QSI analysis (probability at zero displacement), difference between the puncture group and the NAC group” value in assay [6] (5 rats per group) is “showed the difference”. Also, the QSI parameter values result in assay [6] (setting [9]) is recorded as “significant difference”. For the same molecule, in assay [7], the intervertebral disc degeneration result is listed as “prevented”. For the same molecule, the “activation of the MAPK signaling cascade caused by stimulation with TNF-α” value in the assay on MAPK signaling cascade was “suppressed”. Moreover, in assay [8] (setting [10]), the “increase in the expression of COX-2 by oxidative stress” value was “significantly suppressed”, the “increase in the expression of MMP-3 by oxidative stress” value is recorded as “significantly suppressed”, the “increase in the expression of TNF-α by oxidative stress” value is given as “significantly suppressed” and the “reduction in the expression of aggrecan by oxidative stress” value is “suppressed”.
`COc1cccc(-c2cc(=O)c3ccccc3o2)c1N` [PD]: the “expression of COX-2” value in the assay with COX-2 mRNA expression is “significantly suppressed”.
On the same count and under the same terms, the entry for `C[S+]([O-])c1ccc(-c2nc(-c3ccncc3)c(-c3ccc(F)cc3)[nH]2)cc1` (stereo not drawn) [SB] is “significantly suppressed”.
On to `OO` [hydrogen peroxide], for which, in assay [1] (setting [11]), the “mRNA expression of COX-2” value is on record as “concentration-dependent increase”, the “mRNA expression of MMP-3” value was “concentration-dependent increase”, the “mRNA expression of TNF-α” value was “concentration-dependent increase” and the “mRNA expression of aggrecan” value is “reduced in a concentration-dependent manner”. In addition, the “intracellular level of reactive oxygen species” value in [2] (100 µM hydrogen peroxide for 24 hours) is “increase”. Also, the “phosphorylation of the MAPKs p38, ERK, and JNK” value in [3] (100 µM hydrogen peroxide) is recorded as “strongly phosphorylated”.
With `Cc1c(C)c2c(c(C)c1O)CCC(C)(CCCC(C)CCCC(C)CCCC(C)C)O2` (stereo not drawn) [α-tocopherol], the “oxidative stress induced by the addition of TNF-α (gene expression of MMP-3, COX-2, and aggrecan)” value in assay [5] (50 ng/ml TNF-α in the presence of 20 mM α-tocopherol) is on record as “suppress”. Besides, in assay [8] (setting [12]), the “increase in the expression of COX-2 by oxidative stress” value is on record as “significantly suppressed”, the “increase in the expression of MMP-3 by oxidative stress” value is listed as “significantly suppressed”, the “increase in the expression of TNF-α by oxidative stress” value is recorded as “significantly suppressed” and the “reduction in the expression of aggrecan by oxidative stress” value is “suppressed”.
